Publication PMC3849007 (Journal of Experimental & Clinical Cancer Research : CR, 2013)

What was measured:
[1] = test system: h-Tel quadruplex DNA 5′-d[AGGG(TTAGGG)3]-3′; experiment: Surface plasmon resonance, quadruplex DNA; settings: for Surface plasmon resonance K, Quadruplex (Q) DNA: 10 mM HEPES, 200 mM KCl, 3 mM EDTA, 0.01% P20, pH 7.4, equilibrium binding constant
Excerpt: Oligonucleotides 5′-biotin-d[AG3(T2AG3)3] quadruplex and 5′-biotin-CGA3T3C(CT)2GA3T3CG were purchased from Midland Certified Reagent Company (Midland, TX).
In the present work these measurements were repeated comparing ligand binding to the same h-Tel sequence but with a different duplex sequence 5′-d[CGA3T3C(CT)2GA3T3CG]-3′ as comparator.

[2] = test system: h-Tel 5'-d[AGGG(TTAGGG)3]-3' (DNA, G4) AGGGTTAGGGTTAGGGTTAGGG; experiment: CD spectroscopy, induced anti-parallel structure; settings: no significant K+; 298 K; 3.5 molar equivalents of ligand; band at 290 nm emerges
[3] = test system: h-Tel 5'-d[AGGG(TTAGGG)3]-3' (DNA, G4) AGGGTTAGGGTTAGGGTTAGGG; experiment: CD melting at 290 nm; settings: 110 mM K+ (100 mM KCl, potassium phosphate), 10 mM potassium phosphate, pH 7.0, 4 μM DNA, 3.5 mol equiv. ligand
[4] = test system: duplex (D) DNA hairpin, 5'-biotin-CGA3T3C(CT)2GA3T3CG (DNA, hairpin) CGAAATTTCCTCTGAAATTTCG; experiment: surface plasmon resonance; settings: 200 mM KCl; 10 mM HEPES, 3 mM EDTA, 0.01% P20, pH 7.4
[5] = test system: BJ-EHLT fibroblasts; experiment: Proliferation assay, transformed fibroblasts; assay type: cell-based, human; settings: 0.5 μM, culture day 2 to 8
Experimental: BJ fibroblasts expressing hTERT (BJ-hTERT) or hTERT and SV40 early region (BJ-EHLT), were obtained as previously reported. Cells were grown in Dulbecco Modified Eagle Medium (D-MEM, Invitrogen Carlsbad, CA, USA) supplemented with 10% fetal calf serum, 2 mM L-glutamin and antibiotics.
5 × 10^4 cells were seeded in 60-mm Petri plates (Nunc, MasciaBrunelli, Milano, Italy) and 24 h after plating, 0.5 μM of freshly dissolved compound was added to the culture medium. Cell counts (Coulter Counter, Kontron Instruments, Milano, Italy) and viability (trypan blue dye exclusion) were determined daily, from day 2 to day 8 of culture.

[6] = biological target: T1, hERG (Homo sapiens, UniProt Q12809); experiment: hERG tail current inhibition, patch clamp assay; assay type: cell-based; settings: human, HEK293 cells (hERG study), 10 μM, HEK293 cells, read-out: hERG % inhib. (10 μM)
T1 construct: expressed in transfected cells; host or cells: HEK293
T1 sequence (Q12809 whole entry): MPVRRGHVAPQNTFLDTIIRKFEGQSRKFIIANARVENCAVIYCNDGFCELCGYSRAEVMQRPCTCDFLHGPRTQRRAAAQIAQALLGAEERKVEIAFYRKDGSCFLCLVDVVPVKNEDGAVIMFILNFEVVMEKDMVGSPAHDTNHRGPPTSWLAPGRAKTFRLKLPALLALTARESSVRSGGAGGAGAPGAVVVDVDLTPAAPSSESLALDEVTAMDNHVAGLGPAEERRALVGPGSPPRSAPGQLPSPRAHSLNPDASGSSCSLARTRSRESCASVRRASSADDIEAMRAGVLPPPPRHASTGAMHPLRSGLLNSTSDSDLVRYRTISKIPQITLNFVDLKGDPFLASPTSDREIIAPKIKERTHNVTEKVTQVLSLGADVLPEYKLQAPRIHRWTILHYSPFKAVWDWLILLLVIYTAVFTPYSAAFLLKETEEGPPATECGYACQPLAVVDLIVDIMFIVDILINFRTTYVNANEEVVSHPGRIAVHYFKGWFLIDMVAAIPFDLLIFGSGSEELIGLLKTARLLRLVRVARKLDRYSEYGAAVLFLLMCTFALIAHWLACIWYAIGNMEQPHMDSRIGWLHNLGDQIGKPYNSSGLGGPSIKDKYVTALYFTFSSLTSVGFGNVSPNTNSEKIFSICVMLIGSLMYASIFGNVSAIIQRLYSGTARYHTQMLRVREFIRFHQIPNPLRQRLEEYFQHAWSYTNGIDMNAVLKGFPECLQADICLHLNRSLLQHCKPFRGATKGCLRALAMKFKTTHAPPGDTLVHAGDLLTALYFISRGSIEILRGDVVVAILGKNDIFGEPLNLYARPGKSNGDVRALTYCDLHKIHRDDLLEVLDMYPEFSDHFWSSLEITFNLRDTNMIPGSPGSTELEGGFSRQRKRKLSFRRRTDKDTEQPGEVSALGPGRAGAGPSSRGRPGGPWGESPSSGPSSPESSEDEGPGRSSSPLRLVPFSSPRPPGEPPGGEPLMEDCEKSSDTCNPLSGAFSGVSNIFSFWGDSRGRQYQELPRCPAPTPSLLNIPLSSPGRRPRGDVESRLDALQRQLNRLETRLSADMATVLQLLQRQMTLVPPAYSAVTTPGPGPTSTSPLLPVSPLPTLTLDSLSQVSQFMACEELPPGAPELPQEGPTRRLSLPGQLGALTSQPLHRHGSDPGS
Experimental: (§1) For hERG study, HEK293 cells were cultured (1–7 days) in DMEM/GlutaMax-1 + 10% FBS and were plated on collagen-coated dishes (about 2×10^4 cells/dish). The cell was held at -80 mV. A 50-millisecond pulse to -40 mV was delivered to measure the leaking currents, which were subtracted from the tail currents online. […] This paradigm was delivered once every 5 seconds to monitor the current amplitude. After the current amplitude stabilized, the test compound was delivered to the extracellular medium by a rapid solution changer perfusion system. During perfusion, the cell was repetitively stimulated with the protocol described above, and the current amplitude was continuously monitored. Data were acquired and analyzed by using pClamp (Axon Instruments), and Excel (Microsoft), and are reported as mean and individual values. The degree of inhibition (%) was obtained by measuring the tail current amplitude before and after drug superfusion (the difference current was normalized to control and multiplied by 100 to obtain the percent of inhibition). […] The concentration-response relationship of each compound was constructed from the percentage reductions of current amplitude by sequential concentrations. β2-adrenergic receptor CHO expressing cells were used for the receptor inhibition assay as described. The results are expressed as a percent of inhibition of control specific binding (100 - (measured specific binding/control specific binding) × 100)) obtained in the presence of the test compounds. The specific ligand binding to the receptors is defined as the difference between the total binding and the nonspecific binding determined in the presence of an excess of unlabelled ligand. All the in-vivo experiments were carried out at the Regina Elena Cancer Institute. All procedures involving animals and care were performed in compliance with our institutional animal care guidelines and with international directives (directive 2010/63/EU of the European parliament and of the council; Guide for the Care and Use of Laboratory Animals, United States National Research Council, 2011).

[7] = biological target: T2, hERG (human Ether-a-go-go Related Gene) tail current (Homo sapiens, UniProt Q12809); experiment: hERG tail current inhibition, patch clamp assay; assay type: cell-based
T2 construct: expressed in transfected cells; host or cells: HEK293
T2 sequence (Q12809 whole entry): as above
Experimental: as §1

[8] = biological target: T3, human recombinant β2 adrenergic receptor (Homo sapiens, UniProt P07550); experiment: β2-adrenergic receptor binding assay (CHO expressing cells)
T3 construct: expressed in transfected cells; host or cells: CHO
T3 sequence (P07550 whole entry): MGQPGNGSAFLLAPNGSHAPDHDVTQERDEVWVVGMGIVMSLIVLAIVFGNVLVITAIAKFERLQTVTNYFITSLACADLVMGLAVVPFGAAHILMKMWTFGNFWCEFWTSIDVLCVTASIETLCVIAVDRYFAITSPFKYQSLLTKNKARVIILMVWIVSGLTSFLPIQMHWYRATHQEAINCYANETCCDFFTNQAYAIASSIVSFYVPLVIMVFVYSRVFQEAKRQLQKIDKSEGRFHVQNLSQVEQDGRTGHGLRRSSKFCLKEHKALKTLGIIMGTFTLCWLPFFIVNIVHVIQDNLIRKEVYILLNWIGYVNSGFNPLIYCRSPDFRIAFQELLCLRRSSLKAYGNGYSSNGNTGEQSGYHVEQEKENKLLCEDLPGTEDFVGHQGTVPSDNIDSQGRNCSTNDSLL
Experimental: as §1, with “Institute.” for “Institute. All procedures involving animals and care were performed in compliance with our institutional animal care guidelines and with international directives (directive 2010/63/EU of the European parliament and of the council; Guide for the Care and Use of Laboratory Animals, United States National Research Council, 2011).”
Inhibition of receptor was reported as inhibition of control specific binding (100 - (measured specific binding/control specific binding) × 100) obtained in the presence of the test compounds.

Row | Compound | Surface plasmon resonance K, Quadruplex (Q) DNA [1] | Ratio Q/D (SPR) ([1]; quadruplex K / duplex K) | binding [2] | ∆Tm ([3]; Tm 86 ± 3) | K [4] | day of maximum effect on cell proliferation [5] | inhibition at 10 µM [6] | IC50 [7] | inhibition at 1 µM ([8]; 1 μM, Cerep ExpresSProfile screen, read-out: % inhibition of ligand binding, β2 adrenergic receptor) | inhibition at 10 µM ([8]; 10 μM, inhibition of control specific binding, CHO cells, read-out: B2 adrenergic % inhib. (10 μM)) | ∆Tm ([3]; Tm 85 ± 3) | B2 adrenergic % inhib. (10 μM) ([8]; 10 μM, inhibition of control specific binding, CHO cells)
1 | Cc1cc2c3c([n+](C)c4ccc(F)cc4c3c1)-c1cc(F)ccc1N2C [Compound 1, 3,11-Difluoro-6,8,13-trimethyl-8H-quino[4,3,2-kl]acridinium metho-sulfate] | 8.3e+06 M⁻¹ | 13.8 | yes | 16 °C | 600000 M⁻¹ | 6 days | 100% | 0.2 µM | > 95% | 100% | – | –
2 | CC(=O)Nc1ccc2c(c1)c1cccc3c1c([n+]2C)-c1ccccc1N3C [Compound 3, 3-acetylamino-8,13-dimethyl-8H-quino[4,3,2-kl]-acridinium iodide] | 8e+06 M⁻¹ | – | yes | – | 700000 M⁻¹ | seven | 21% | 18 µM | – | – | 15 °C | 29%
